Experiment [1] concerns MCF-7 (breast adenocarcinoma). Put plainly: Inhibition of cell proliferation (MTT), MCF-7. Type of experiment: cell-based, human. The settings on record: 48 h of treatment (footnote), average ±SD of three experiments.
Experiment [2] has as its system A-549 (human pulmonary adenocarcinoma). Description: Inhibition of cell proliferation (MTT), A-549. The settings on record: Homo sapiens, A549, 48 h, 48 h of treatment (footnote), average ±SD of three experiments. Type of experiment: cell-based. The essentials: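 Antiproliferative activity against A-549 human pulmonary adenocarcinoma cells was measured by MTT assay. Cells were seeded at 25,000/mL in 96-well plates, cultured 24 h, then exposed to compounds at various concentrations. MTT (20 µL, 5 mg·mL^−1) was added for 2 h at 37 °C, formazan dissolved in 200 µL DMSO, and absorbance read at 540 nm. IC50 values came graphically from three independent experiments.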

In a further experiment the test system is hTERT gene. Put plainly: hTERT gene expression by RT-qPCR in HT-29 cells. Type of experiment: cell-based, human. How it is done:
(§1) The effect on the expression of VEGF, hTERT and c-Myc genes has been studied for CA-4 and its derivatives that show selectivity indexes higher than 0.9 on the HT-29 cell line. The studied derivatives, together with the concentrations to which they have been tested, are CA-4 (15 μM); 4.1 (Gly, 5 μM); 4.5 (L-Pro, 25 μM); 4.9 (L-Met, 25 μM); 6.2 (D-Leu, 25 μM); 6.3 (D-Phe, 25 μM); 6.4 (D-Pro, 25 μM) and 6.5 (D-Ser, 10 μM). The expression of the genes was determined by RT-qPCR methodology, as described in the Materials and Methods section.
(§2) As regards AmCA-4 derivatives, the effect on the expression of the VEGF, hTERT and c-Myc genes has been studied on those that show IC50 in the low nanomolar range on the HT-29 cell line and/or on compounds whose selectivity indexes with respect to this cell line are higher than 1. The studied compounds, together with the concentrations to which they have been tested, are: CA-4 (15 μM), AmCA-4 (15 nM), 7.1 (7 nM), 7.2 (1.5 nM), 7.3 (4 nM), 7.4 (15 nM), 7.5 (2 nM), 7.7 (7 nM), 7.8 (15 nM), 7.9 (30 nM), 8.1 (7 nM), 8.2 (3 nM), 8.3 (10 nM), 8.4 (1.5 nM), 8.5 (4 nM), 8.7 (7 nM), 8.8 (3 nM) and 8.9 (4 nM).
(§3) HT-29 cells at 70–80% confluence were collected, and 1.5 × 10^5 cells were placed in a six-well plate in 1.5 mL of the medium. After 24 h, cells were incubated with the corresponding compounds for 48 h. Cells were collected, and the total cellular RNA from the HT-29 cells was isolated using an Ambion RNA Extraction Kit, according to the manufacturer’s instructions. The cDNA was synthesized by MMLV-RT with […] of extracted RNA and oligo(dT)15, according to the manufacturer’s instructions. Genes were amplified by a thermal cycler and StepOnePlus™ TaqMan® probes. TaqMan® Gene Expression Master Mix Fast, containing the appropriate buffer for the amplification conditions, dNTPs, thermostable DNA polymerase enzyme and a passive reference probe, was used. To amplify each of the genes, the predesigned primers sold by Life Technologies TaqMan® Gene Expression Assays Hs99999903-m1 (β-actin), Hs00900055-m1 (VEGF), Hs00972646-m1 (hTERT) and Hs00153408-m1 (c-Myc) were used.
In general terms: Real-time PCR tracks product formation cycle by cycle.

Another experiment concerns c-Myc gene. Description: c-Myc gene expression by RT-qPCR in HT-29 cells. Type of experiment: cell-based, human. How it is done: as §1, §2, §3
Where [3] appears, read: Homo sapiens, MCF7, 48 h, Table 1.
The mark [4] stands for this setting: HT-29, 48 h; discussion; concentration per compound.
The mark [5] stands for this setting: Homo sapiens, HT-29, 48 h, 25 μM, control 100.
[6] abbreviates: Homo sapiens, MCF7, 48 h, Table 2.
[7] abbreviates: Homo sapiens, HT-29, 48 h, 10 nM, control 100.
[8] abbreviates: Homo sapiens; HT-29, 48 h, 15 nM; control 100.
Where [9] appears, read: Homo sapiens, HT-29, 48 h, 7 nM, control 100.
[10] abbreviates: Homo sapiens; HT-29, 48 h, 15 μM; control (DMSO) 100; normalized to β-actin.
The mark [11] stands for this setting: Homo sapiens, HT-29, 48 h, 10 μM, control 100.
Setting [12] is: Homo sapiens, HT-29, 48 h, 4 nM, control 100.
Where [13] appears, read: Homo sapiens, HT-29, 48 h, 2 nM, control 100.
[14] abbreviates: Homo sapiens; HT-29, 48 h, 25 μM; control 100.
Where [15] appears, read: Homo sapiens, HT-29, 48 h, 3 nM, control 100.
Setting [16] is: Homo sapiens, HT-29, 48 h, 5 μM, control 100.
[17] abbreviates: Homo sapiens, HT-29, 48 h, 30 nM, control 100.

Each structure is given as a SMILES string.

For the compound `COc1ccc(/C=C\c2cc(OC)c(OC)c(OC)c2)cc1OCC(=O)N[C@@H](CCSC)C(=O)O` [Compound 4.9], the IC50 in experiment [1] (setting [3]) was 13000 ± 2000 nM; in experiment [2] (Table 1), over 300000 nM. Besides, the “downregulation of hTERT gene expression” value in the experiment with hTERT gene (setting [4]) was “more than 55%”. For the same compound, the mrna remaining at 25 µM in the experiment on hTERT gene (setting [5]) was found to be 38%; in the experiment on c-Myc gene (setting [5]), 37%. Besides, in the experiment with c-Myc gene (setting [4]), the “downregulation of c-Myc gene expression” value is reported as “more than 55%”.
In the case of `COc1ccc(/C=C\c2cc(OC)c(OC)c(OC)c2)cc1OCC(=O)N[C@H](CC(C)C)C(=O)O` [Compound 6.2], the results for the IC50 in experiment [1] (setting [3]) and in experiment [2] (Table 1) were 25000 ± 2000 nM and 68000 ± 1000 nM, respectively. Also, the mrna remaining at 25 µM was 87% in the experiment on hTERT gene (setting [5]) and 68% in the experiment on c-Myc gene (setting [5]).
As for `COc1ccc(/C=C\c2cc(OC)c(OC)c(OC)c2)cc1NC(=O)[C@@H](N)C(C)C` [Compound 8.3], the figures for the IC50 in experiment [1] (setting [6]) and in experiment [2] (Table 2) were 13 ± 2 nM and 490 ± 100 nM, respectively. The figures for the mrna remaining at 0.01 µM with hTERT gene (setting [7]) and with c-Myc gene (setting [7]) were under 70% and 62%, respectively.
`COc1ccc(/C=C\c2cc(OC)c(OC)c(OC)c2)cc1N` [AmCA-4, 3′-aminocombretastatin A-4]: the IC50 in experiment [1] (setting [6]) was determined as 8 ± 1 nM; in experiment [2] (Table 2), 117 ± 7 nM. In addition, the mrna remaining at 0.015 µM was 50% in the experiment on hTERT gene (setting [8]) and 58% with c-Myc gene (setting [8]).
As to `COc1ccc(/C=C\c2cc(OC)c(OC)c(OC)c2)cc1NC(=O)[C@@H](N)C(C)O` (some centres unmarked) [Compound 8.7], the IC50 in experiment [1] (setting [6]) turned out to be 12 ± 1 nM; in experiment [2] (Table 2), 410 ± 40 nM. The mrna remaining at 0.007 µM in the experiment with hTERT gene (setting [9]) came out at 81%; in the experiment with c-Myc gene (setting [9]) it was 37%. In addition, in the experiment on c-Myc gene (setting [4]), the “downregulation of c-Myc gene expression” value is listed as “more than 60%”.
As for `COc1ccc(/C=C\c2cc(OC)c(OC)c(OC)c2)cc1O` [CA-4, combretastatin A-4], the half-maximal inhibitory concentration (IC50) in experiment [1] (Homo sapiens, MCF7, Table 1) was 1000 ± 200 nM; in experiment [2] (Table 1), 428 ± 4 nM. For the same compound, the figures for the mrna remaining at 15 µM with hTERT gene (setting [10]) and with c-Myc gene (setting [10]) were 85% and 35%, respectively.
In the case of `COc1ccc(/C=C\c2cc(OC)c(OC)c(OC)c2)cc1OCC(=O)N[C@H](CO)C(=O)O` [Compound 6.5], the half-inhibitory concentration (IC50) in experiment [1] (setting [3]) is 12000 ± 1000 nM; in experiment [2] (Table 1), over 150000 nM. Further, the figures for the mrna remaining at 10 µM in the experiment with hTERT gene (setting [11]) and in the experiment with c-Myc gene (setting [11]) were 77% and 94%, respectively.
`COc1ccc(/C=C\c2cc(OC)c(OC)c(OC)c2)cc1NC(=O)[C@@H](N)Cc1ccccc1` [Compound 8.5] showed an IC50 in experiment [2] (Table 2) of 141 ± 3 nM. Besides, the mrna remaining at 0.004 µM in the experiment with hTERT gene (setting [12]) amounted to 98%; in the experiment with c-Myc gene (setting [12]), 74%.
`COc1ccc(/C=C\c2cc(OC)c(OC)c(OC)c2)cc1NC(=O)[C@H](Cc1ccccc1)NC(=O)OCC1c2ccccc2-c2ccccc21` [Compound 7.5]: the IC50 is 14 ± 4 nM in experiment [1] (setting [6]) and 270 ± 50 nM in experiment [2] (Table 2). Further, the mrna remaining at 0.002 µM with hTERT gene (setting [13]) was under 70%; with c-Myc gene (setting [13]) it was 40%. In addition, the “downregulation of c-Myc gene expression” value in the experiment with c-Myc gene (setting [4]) is “more than 60%”.
As to `COc1ccc(/C=C\c2cc(OC)c(OC)c(OC)c2)cc1OCC(=O)N[C@H](C(=O)O)C(C)C` [Compound 4.2], the IC50 in experiment [1] (Homo sapiens, MCF7, Table 1) amounted to 7000 ± 1000 nM; in experiment [2] (Table 1) it was 17000 ± 2000 nM. For the same compound, the mrna remaining at 25 µM in the experiment on hTERT gene (setting [14]) worked out at 82%; in the experiment with c-Myc gene (setting [14]) it was 71%.
With `COc1ccc(/C=C\c2cc(OC)c(OC)c(OC)c2)cc1OCC(=O)N[C@H](Cc1ccccc1)C(=O)O` [Compound 6.3], the IC50 in experiment [1] (Homo sapiens, MCF7, Table 1) was found to be 43000 ± 3000 nM; in experiment [2] (Table 1), 60000 ± 4000 nM. The mrna remaining at 25 µM was found to be 68% with hTERT gene (setting [14]) and 55% in the experiment with c-Myc gene (setting [14]).
On to `COc1ccc(/C=C\c2cc(OC)c(OC)c(OC)c2)cc1NC(=O)[C@@H](N)CCSC` [Compound 8.9], for which the concentration for half-maximal inhibition (IC50) in experiment [1] (setting [6]) is under 5 nM; in experiment [1] (Table 2), 3.4 ± 1.2 nM; in experiment [2] (Table 2) it was 90 ± 30 nM. Further, the mrna remaining at 0.004 µM in the experiment on hTERT gene (setting [12]) came out at 71%; in the experiment on c-Myc gene (setting [12]), 70%.
For the compound `COc1ccc(/C=C\c2cc(OC)c(OC)c(OC)c2)cc1NC(=O)[C@H](C)N` [Compound 8.2], the results for the IC50 in experiment [1] (setting [6]), in experiment [1] (Table 2) and in experiment [2] (Table 2) were under 5 nM, 4.8 ± 0.5 nM and 611 ± 16 nM, respectively. Moreover, the mrna remaining at 0.003 µM with hTERT gene (setting [15]) stood at 74%; in the experiment on c-Myc gene (setting [15]), 97%.
As to `COc1ccc(/C=C\c2cc(OC)c(OC)c(OC)c2)cc1NC(=O)CNC(=O)OCC1c2ccccc2-c2ccccc21` [Compound 7.1], the half-maximal inhibitory concentration (IC50) in experiment [1] (setting [6]) worked out at 4.8 ± 0.5 nM; in experiment [2] (Table 2) it was 186 ± 11 nM. The mrna remaining at 0.007 µM with hTERT gene (setting [9]) was under 70%; in the experiment with c-Myc gene (setting [9]), 58%.
For `COc1ccc(/C=C\c2cc(OC)c(OC)c(OC)c2)cc1OCC(=O)NCC(=O)O` [Compound 4.1], the results for the IC50 in experiment [1] (setting [3]) and in experiment [2] (Table 1) were 6000 ± 1000 nM and 24000 ± 4000 nM, respectively. The values for the mrna remaining at 5 µM with hTERT gene (setting [16]) and in the experiment with c-Myc gene (setting [16]) were 56% and 62%, respectively.
`COc1ccc(/C=C\c2cc(OC)c(OC)c(OC)c2)cc1NC(=O)CN` [Compound 8.1]: the values for the IC50 in experiment [1] (setting [6]) and in experiment [2] (Table 2) were 9 ± 4 nM and 400 ± 70 nM, respectively. Moreover, the figures for the mrna remaining at 0.007 µM with hTERT gene (setting [9]) and in the experiment with c-Myc gene (setting [9]) were over 100% and 54%, respectively.
Turning to `COc1ccc(/C=C\c2cc(OC)c(OC)c(OC)c2)cc1OCC(=O)N1CCC[C@@H]1C(=O)O` [Compound 6.4], the results for the IC50 in experiment [1] (setting [3]) and in experiment [2] (Table 1) were 55000 ± 13000 nM and 95000 ± 14000 nM, respectively. For the same compound, the mrna remaining at 25 µM in the experiment on hTERT gene (setting [5]) came out at 51%; with c-Myc gene (setting [5]), 81%.
For `COc1ccc(/C=C\c2cc(OC)c(OC)c(OC)c2)cc1NC(=O)[C@H](CCSC)NC(=O)OCC1c2ccccc2-c2ccccc21` [Compound 7.9], the IC50 in experiment [1] (setting [6]) was 5.1 ± 0.3 nM; in experiment [2] (Table 2), 407 ± 23 nM. Moreover, the mrna remaining at 0.03 µM was found to be 77% in the experiment with hTERT gene (setting [17]) and 61% in the experiment on c-Myc gene (setting [17]).

As a reminder, the IC50 is the concentration that gives 50% inhibition.

The values are drawn from publication PMC7037732, “Synthesis of Combretastatin A-4 and 3′-Aminocombretastatin A-4 derivatives with Aminoacid Containing Pendants and Study of their Interaction with Tubulin and as Downregulators of the VEGF, hTERT and c-Myc Gene Expression” (Molecules, 2020).
